# Data as given in US8101550B2, “Anthranilic acid diamide derivative with hetero-aromatic and hetero-cyclic substituents” (Bayer Cropscience AG, priority 2006, dated 2012).
# Where two headings read alike, the source gives them in different places.
# Test: log P determination by HPLC on reverse-phase column (EEC Directive 79/831 Annex V.A8)
# Type: physicochemical
# Conditions: for chromatographic logP: reverse-phase C18 HPLC column, read-out: logP
# How it was run: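 Log P was derived from retention times by linear interpolation between successive unbranched alkan-2-one standards (C3–C16). The standards and samples ran on a C18 reverse-phase column at 43 °C with a 10→95% acetonitrile gradient in 0.1% formic acid (pH 2.7). The method follows EEC Directive 79/831 Annex V.A8.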
# [1] = HPLC, reverse-phase column (C 18), 43° C., acidic range pH 2.7
compound,measurement,setting,value
Cc1cc(Br)cc(C(=O)NC(C)C)c1NC(=O)c1cc(Cn2nc(C(F)(F)F)cc2C(F)(F)F)nn1-c1ncc(C(F)(F)F)cc1Cl [I-2-21],logP,[1],4.75
CNC(=O)c1cc(Cl)cc(C)c1NC(=O)c1cc(Cn2cc(C(F)(F)C(F)(F)F)cn2)nn1-c1ncccc1Cl [I-1-64],logP,HPLC on reverse-phase column,3.21
C[C@@H](CS(C)(=O)=O)NC(=O)c1cc(Cl)cc(Cl)c1NC(=O)c1cc(Cn2cc(C(F)(F)C(F)(F)F)c(C(F)(F)C(F)(F)F)n2)nn1-c1ncccc1Cl [I-1-328],logP,,3.63
Cc1cc(C#N)cc(C(=O)NC(C)C)c1NC(=O)c1cc(Cn2cc(C(F)(F)C(F)(F)F)c(C(F)(F)C(F)(F)F)n2)nn1-c1ncccc1Cl [I-1-169],logP,,4.55
CNC(=O)c1cc(Cl)cc(C)c1NC(=O)c1cc(Cn2nnc(-c3cc(C(F)(F)F)cc(C(F)(F)F)c3)n2)nn1-c1ncccc1Cl [I-1-112],logP,HPLC on reverse-phase column,4.28
Cc1cc(I)cc(C(=O)NCC2CC2)c1NC(=O)c1cc(Cn2cc(Cl)c(C(F)(F)C(F)(F)F)n2)nn1-c1ncccc1Cl [I-1-254],logP,,4.47
Cc1cc(Cl)cc(C(=O)NC(C)C)c1NC(=O)c1cc(Cn2nc(C)c(Br)c2C)nn1-c1ncccc1Cl [I-1-269],logP,,3.4
N#CCNC(=O)c1cc(Cl)cc(Cl)c1NC(=O)c1cc(Cn2cc(C(F)(F)C(F)(F)F)c(C(F)(F)C(F)(F)F)n2)nn1-c1ncccc1Cl [I-1-299],logP,,3.53
CSCC(C)(C)NC(=O)c1cc(Br)cc(C)c1NC(=O)c1cc(Cn2nc(C(F)(F)F)nc2C(F)(F)F)nn1-c1ncccc1Cl [I-1-134],logP,HPLC on reverse-phase column,4.63
N#CCNC(=O)c1cc(Cl)cc(Cl)c1NC(=O)c1cc(Cc2cncnc2)nn1-c1ncccc1Cl [I-1-320],logP,,1.49
Cc1cc(Br)cc(C(=O)NC(C)C)c1NC(=O)c1cc(Cn2cc(Cl)c(C(F)(F)C(F)(F)F)n2)nn1-c1ncccc1Cl [I-1-71],logP,HPLC on reverse-phase column,4.40
"COC(=O)c1cc(CO)nn1-c1ncccc1Cl [Example 6, Methyl 2-(3-chloropyridin-2-yl)-5-hydroxymethyl-2H-pyrazole-3-carboxylate]",chromatographic logP,[1],1.26
Cc1cc(Cl)cc(C(=O)NC(C)C)c1NC(=O)c1cc(Cn2cnc(-c3ccc(Cl)cc3)n2)nn1-c1ncccc1Cl [I-1-154],logP,,3.56
CCNC(=O)c1cc(I)cc(C)c1NC(=O)c1cc(Cn2cc(C(F)(F)C(F)(F)F)c(C(F)(F)C(F)(F)F)n2)nn1-c1ncccc1Cl [I-1-274],logP,,4.74
CNC(=O)c1cc(Cl)cc(C)c1NC(=O)c1cc(Cn2cc(Br)c(C(F)(F)F)n2)nn1-c1ncccc1Cl [I-1-66],logP,HPLC on reverse-phase column,3.38
CC(C)NC(=O)c1cc(Cl)cc(Cl)c1NC(=O)c1cc(Cn2nc(C(F)F)c([N+](=O)[O-])c2C(F)F)nn1-c1ncccc1Cl [I-1-259],logP,,3.27
CSC[C@H](C)NC(=O)c1cc(Cl)cc(C)c1NC(=O)c1cc(Cn2nnc(-c3cc(Cl)nc(Cl)c3)n2)nn1-c1ncccc1Cl [I-1-157],logP,,4.36
NC(=O)c1cc(Cl)cc(Cl)c1NC(=O)c1cc(Cn2ccc(C(F)(F)F)n2)nn1-c1ncccc1Cl [I-1-311],logP,,2.21
NC(=O)c1cc(Cl)cc(Cl)c1NC(=O)c1cc(Cc2cncnc2)nn1-c1ncccc1Cl [I-1-319],logP,,2.02
Cc1cc(Cl)cc(C(=O)NC(C)(C)CS(C)(=O)=O)c1NC(=O)c1cc(Cn2nc(C(F)(F)F)nc2C(F)(F)F)nn1-c1ncccc1Cl [I-1-139],logP,HPLC on reverse-phase column,3.50
Cc1cc(C#N)cc(C(N)=O)c1NC(=O)c1cc(Cn2nc(C(F)(F)F)nc2C(F)(F)F)nn1-c1ncccc1Cl [I-1-179],logP,,2.91
Cc1cc(I)cc(C(=O)NCC#N)c1NC(=O)c1cc(Cn2nc(C(F)(F)F)nc2C(F)(F)F)nn1-c1ncccc1Cl [I-1-245],logP,,3.53
Cc1cc(Cl)cc(C(=O)NC(C)C)c1NC(=O)c1cc(Cn2nnc(-c3ccccc3)n2)nn1-c1ncccc1Cl [I-1-166],logP,,3.60
CNC(=O)c1cc(Cl)cc(C)c1NC(=O)c1cc(Cn2cnc(C(F)(F)C(F)(F)F)n2)nn1-c1ncccc1Cl [I-1-347],logP,,2.19
Cc1cc(I)cc(C(=O)NCC#N)c1NC(=O)c1cc(Cn2cc(Cl)c(C(F)(F)C(F)(F)F)n2)nn1-c1ncccc1Cl [I-1-246],logP,,3.85
CNC(=O)c1cc(Cl)cc(Cl)c1NC(=O)c1cc(Cn2cnc(C(F)(F)C(F)(F)F)n2)nn1-c1ncccc1Cl [I-1-326],logP,,2.55
Cc1cc(C#N)cc(C(=O)NC2CC2CO)c1NC(=O)c1cc(Cn2cc(Cl)c(C(F)(F)C(F)(F)F)n2)nn1-c1ncccc1Cl (stereo not drawn) [I-1-198],logP,,3.11
Cc1cc(Cl)cc(C(=O)NC(C)C)c1NC(=O)c1cc(Cn2cnc(C(F)(F)C(F)(F)F)n2)nn1-c1ncccc1Cl [I-1-334],logP,,2.66
N#CCNC(=O)c1cc(Cl)cc(Cl)c1NC(=O)c1cc(Cn2cc(Cl)c(C(F)(F)C(F)(F)F)n2)nn1-c1ncccc1Cl [I-1-310],logP,,3.13
O=C(NC1CC1)c1cc(Cl)cc(Cl)c1NC(=O)c1cc(Cn2ccc(C(F)(F)F)n2)nn1-c1ncccc1Cl [I-1-315],logP,,2.54
Cc1cc(F)cc(C(=O)NC(C)C)c1NC(=O)c1cc(Cn2ccc(C(F)(F)F)n2)nn1-c1ncccc1Cl [I-1-226],logP,,3.00
CNC(=O)c1cc(Cl)cc(C)c1NC(=O)c1cc(Cn2nnnc2-c2ccc(C(F)(F)F)cc2)nn1-c1ncccc1Cl [I-1-163],logP,,3.15
CNC(=O)c1cc(I)cc(C)c1NC(=O)c1cc(Cn2cc(Cl)c(C(F)(F)C(F)(F)F)n2)nn1-c1ncccc1Cl [I-1-243],logP,,3.96
CNC(=O)c1cc(Cl)cc(C)c1NC(=O)c1cc(Cn2nc(C(F)(F)F)n(C3CC3)c2=O)nn1-c1ncccc1Cl [I-1-127],logP,HPLC on reverse-phase column,2.74
CNC(=O)c1cc(I)cc(C)c1NC(=O)c1cc(Cn2ccc(C(F)(F)F)n2)nn1-c1ncccc1Cl [I-1-247],logP,,3.05
Cc1cc(I)cc(C(=O)NC(C)(C)C)c1NC(=O)c1cc(Cn2cc(Cl)c(C(F)(F)C(F)(F)F)n2)nn1-c1ncccc1Cl [I-1-289],logP,,4.63
Cc1cc(F)cc(C(=O)NC(C)C)c1NC(=O)c1cc(Cn2cc(Cl)c(C(F)(F)C(F)(F)F)n2)nn1-c1ncccc1Cl [I-1-224],logP,,3.89
Cc1cc(C#N)cc(C(N)=O)c1NC(=O)c1cc(Cn2cnc(C(F)(F)C(F)(F)F)n2)nn1-c1ncccc1Cl [I-1-339],logP,,2.11
Cc1cc(Cl)cc(C(=O)NC(C)C[S+](C)[O-])c1NC(=O)c1cc(Cn2cc(Cl)c(C(F)(F)C(F)(F)F)n2)nn1-c1ncccc1Cl (stereo not drawn) [I-1-212],logP,,3.25
CNC(=O)c1cc(Cl)cc(C)c1NC(=O)c1cc(Cn2cnc(SC)n2)nn1-c1ncccc1Cl [I-1-265],logP,,1.94
"Cc1cc(Cl)cc2c(=O)oc(-c3cc(Cn4nc(C(F)(F)F)cc4C(F)(F)F)nn3-c3ncccc3Cl)nc12 [Example 2, 2-[5-(3,5-Bistrifluoromethylpyrazol-1-ylmethyl)-2-(3-chloropyridin-2-yl)-2H-pyrazol-3-yl]-6-chloro-8-methylbenzo[d][1,3]oxazin-4-one]",chromatographic logP,[1],5.11
O=C(NC1CC1)c1cc(Cl)cc(Cl)c1NC(=O)c1cc(Cn2nc(C(F)(F)F)cc2C(F)(F)F)nn1-c1ncc(C(F)(F)F)cc1Cl [I-2-13],logP,[1],4.46
NC(=O)c1cc(Cl)cc(Cl)c1NC(=O)c1cc(Cn2cnc(C(F)(F)C(F)(F)F)n2)nn1-c1ncccc1Cl [I-1-346],logP,,2.01
NC(=O)c1cc(Cl)cc(Cl)c1NC(=O)c1cc(Cn2cc(C(F)(F)C(F)(F)F)c(C(F)(F)C(F)(F)F)n2)nn1-c1ncccc1Cl [I-1-296],logP,,3.43
CSC[C@H](C)NC(=O)c1cc(Cl)cc(C)c1NC(=O)c1cc(Cn2cnc(-c3ccc(Cl)nc3)n2)nn1-c1ncccc1Cl [I-1-159],logP,,3.78
Cc1cc(Br)cc(C(=O)NC2CC2)c1NC(=O)c1cc(Cn2cc(Br)c(C(F)(F)F)n2)nn1-c1ncccc1Cl [I-1-93],logP,HPLC on reverse-phase column,3.69
Cc1cc(Cl)cc(C(=O)N[C@@H](C)CS(C)(=O)=O)c1NC(=O)c1cc(Cn2nc(C(F)(F)F)nc2C(F)(F)F)nn1-c1ncccc1Cl [I-1-129],logP,HPLC on reverse-phase column,3.27
Cc1cc(Cl)cc(C(=O)NC(C)C)c1NC(=O)c1cc(Cn2nnc(-c3ccc(Br)cc3)n2)nn1-c1ncccc1Cl [I-1-151],logP,,4.20
CNC(=O)c1cc(C#N)cc(C)c1NC(=O)c1cc(Cn2cnc(C(F)(F)C(F)(F)F)n2)nn1-c1ncccc1Cl [I-1-333],logP,,2.25
Cc1cc(Cl)cc(C(N)=O)c1NC(=O)c1cc(Cn2cnc(C(F)(F)C(F)(F)F)n2)nn1-c1ncccc1Cl [I-1-330],logP,,2.39
Cc1cc(Cl)cc(C(=O)NC(C)C)c1NC(=O)c1cc(Cn2cc(I)c(C(F)(F)F)n2)nn1-c1ncccc1Cl [I-1-63],logP,HPLC on reverse-phase column,3.85
CNC(=O)c1cc(Cl)cc(Cl)c1NC(=O)c1cc(Cn2nc(C(F)(F)F)cc2C(F)(F)F)nn1-c1ncccc1Cl [I-1-304],logP,,3.01
"COC(=O)c1cc(COS(C)(=O)=O)nn1-c1ncccc1Cl [Example 5, Methyl 2-(3-chloropyridin-2-yl)-5-methanesulphonyloxymethyl-2H-pyrazole-3-carboxylate]",chromatographic logP,[1],1.55
Cc1cc(Cl)cc(C(=O)NC(C)C)c1NC(=O)c1cc(Cn2nnn(-c3cc(C(F)(F)F)cc(C(F)(F)F)c3)c2=O)nn1-c1ncccc1Cl [I-1-91],logP,HPLC on reverse-phase column,4.51
Cc1cc(C#N)cc(C(N)=O)c1NC(=O)c1cc(Cn2cc(Cl)c(C(F)(F)C(F)(F)F)n2)nn1-c1ncccc1Cl [I-1-174],logP,,3.20
Cc1cc(Cl)cc(C(=O)NC(C)C)c1NC(=O)c1cc(Cn2cc(I)c(I)n2)nn1-c1ncccc1Cl [I-1-111],logP,HPLC on reverse-phase column,3.58
Cc1cc(Cl)cc(C(N)=O)c1NC(=O)c1cc(Cn2nc(C(F)(F)F)nc2C(F)(F)F)nn1-c1ncccc1Cl [I-1-50],logP,HPLC on reverse-phase column,3.88
Cc1cc(C#N)cc(C(=O)NC2CC2)c1NC(=O)c1cc(Cn2cnc(C(F)(F)C(F)(F)F)n2)nn1-c1ncccc1Cl [I-1-338],logP,,2.45
Cc1cc(I)cc(C(=O)NCC(F)(F)F)c1NC(=O)c1cc(Cn2nc(C(F)(F)F)cc2C(F)(F)F)nn1-c1ncccc1Cl [I-1-232],logP,,5.28
Cc1cc(Cl)cc(C(=O)NC2CC2)c1NC(=O)c1cc(Cn2nc(C(F)(F)F)nc2C(F)(F)F)nn1-c1ncccc1Cl [I-1-54],logP,HPLC on reverse-phase column,3.61
